Source: PMC7824033, “Flavones, Flavonols, and Glycosylated Derivatives—Impact on Candida albicans Growth and Virulence, Expression of CDR1 and ERG11, Cytotoxicity” (Pharmaceuticals, 2020)
Values after ≈ are worked out from the molar mass of the structure shown. “Also recorded” adds a separate entry of the source. Where two headings read alike, the source gives them in different places.

Experiments:
CDR1 [1] = test: Expression of CDR1 (qPCR); assay type: cell-based, Candida albicans; conditions: treatment with MIC
Description: (§1) Total RNA was isolated as described by Sanglard et al. with some modifications. C. albicans 475/15 was grown with agitation at 30 °C in YEPD until OD540 = 0.4. C. albicans cells were incubated with MIC of compounds in YEPD at 30 °C with agitation for 30 min. Cells were centrifuged (4600 rpm, 4 °C for 5 min (Rotanata 460 R, Hettich, Tuttlingen, Germany)) and the pellet was resuspended in 300 µL of RNA buffer (0.1 M Tris-HCl pH 7.5, 0.1M LiCl, 10mM EDTA, 0.5% SDS). The pellet was homogenized with 200 µL of DEPC treated glass beads and 300 µL of Phenol:Chloroform:Isoamyl Alcohol (Sigma-Aldrich, Darmstadt, Germany) in Precellys Evolution tissue homogenizer (Bertion instruments, Montigny-le-Bretonneux, France) at 4500 rpm for 5 s. After centrifugation (14,000 rpm, 4 °C, 1 min (Universal 32 R, Hettich, Tuttlingen, Germany)) 200 µL of supernatant was vortexed with 250 µL of Phenol:Chloroform:Isoamyl Alcohol for 10 s. Samples were centrifuged (14,000 rpm, 4 °C, 1 min) and 200 µL of supernatant was transferred to new tubes, 400 µL of ice-cold 99% ethanol was added to each tube, and they were kept on dry ice for 10 min. Samples were centrifuged (14,000 rpm, 4 °C, 2 min), pellet was washed with ethanol (70%), left to dry at room temperature, after which it was dissolved in 50 µL of DEPC treated water. Nanodrop (ND-1000, Witec AG, Sursee, Switzerland) was used for determination of concentration and purity of samples. RNA was stored at −80°C.
(§2) Amount of 10 µg RNA was incubated with 5 µL of DNAse buffer and 1 µL of DNAse at 37 °C for 30 min (DNA-free™ DNA Removal Kit, Ambion, Bleiswijk, Netherlands). After addition of DNAse inactivation reagent tubes were kept at room temperature with occasional vortexing for 5 min. Samples were centrifuged (14,000 rpm, 4°C, 2 min) and the concentration and quality of supernatant were analyzed on Nanodrop (ND-1000, Witec AG, Sursee, Switzerland).
(§3) Synthesis of cDNA was done with a Transcriptor High Fidelity cDNA synthesis kit (Roche). RNA (1 µg) was incubated with 60 µM random hexamer primers, in 11.4 µL of total sample volume, at 65 °C for 10 min. The mixture of Transcriptase reaction buffer 5×, Deoxynucleotide mix, DTT, Protector RNAse inhibitor, and Transcriptor High Fidelity Reverse Transcriptase was added to each tube according to manufacturer instructions. Synthesis of cDNA was completed by incubating the mixture at 50 °C for 30 min and 85 °C for 5 min (Peqstar thermocycler, Peqlab, Erlangen, Germany).
(§4) Wells of MicroAmp Fast 96-Well Reaction plate ((0.1 mL), Applied biosystems, Waltham, MA, USA) were incubated with 10 µL of mixture (cDNA, 2× MasterMix, primers, probe (Table 3), and water). Analysis was performed in StepOnePlus Real Time PCR system with relative standard curve method. Expression levels of CDR1 and ERG11 were normalized to expression of ACT1.

C. albicans biofilm = conditions: C. albicans CAD1 biofilm; cited from earlier work
C. albicans 13/15 = test: Microdilution assay, MIC and MFC; assay type: cell-based; conditions: Candida albicans
Description: (§5) C. albicans was isolated from oral cavities of patients at ENT Clinic, Clinical Hospital Centre Zvezdara, Belgrade, Serbia after obtaining informed written consent and identified by using CHROMagar plates (Biomerieux, Craponne, France). Strains were maintained on Sabouraud Dextrose Agar (Merck, Darmstadt, Germany) and are deposited at the Mycological Laboratory, Department of Plant Physiology, Institute for Biological Research “Siniša Stanković”, National Institute of Republic of Serbia, University of Belgrade. The collection of samples was approved by the Ethical Committee (Office for Human Research Protection, Zvezdara University Medical Center, Belgrade, Serbia, document issued 26 October 2016).
(§6) Microdilution assay with some modification was used for determination of minimum inhibitory (MIC) and minimum fungicidal concentrations (MFC). Yeast cultures were adjusted to 1.0 × 10^5 CFU/per well with sterile PBS (Phosphate buffered saline, pH 7.4). The 96-well microtiter plates with serially diluted flavonoids (concentration range 0.3–75 µg/mL) in liquid broth were incubated at 37 °C for 24 h. After incubation, MIC and MFC were determined. The lowest concentrations that were not inducing microscopically observed growth were considered as MIC. For microscopic determination of growth, we used inverted microscope Nikon Eclipse TS2 (Amsterdam, Netherland) and examined the fungal growth in the wells of 96-well microtiter plates compared to the control (untreated yeast cells). MFC values were determined as concentrations without visible growth after serial sub-cultivation of 10 µL of samples at 37 °C for 24 h. Ketoconazole and amphotericin B (SigmaAldrich, Darmstadt, Germany) were used as an antifungal control. The tested flavonoids were obtained from Extrasynthese, Rhone, France.

C. albicans 527/14 = test: Microdilution assay, MIC and MFC; assay type: cell-based; conditions: Candida albicans
Description: as §5, §6

C. albicans 475/15 = test: Microdilution assay, MIC and MFC; assay type: cell-based; conditions: Candida albicans
Description: as §5, §6

C. albicans 10/15 = test: Microdilution assay, MIC and MFC; assay type: cell-based; conditions: Candida albicans
Description: as §5, §6

[2] = Cytotoxicity, Sulforhodamine B assay; conditions: pig
Description: Preparation of PLP2 cell line was performed with freshly harvested porcine liver supplied from a local slaughter house. Tissues from the liver were washed in Hank’s balanced salt solution comprising 100 U/mL penicillin and 100 μg/mL streptomycin and split into 1 × 1 mm^3 explants. Some of the prepared explants were set in 25 cm^2 tissue flasks in Dulbecco’s modified Eagle’s medium (DMEM) with 10% fetal bovine serum (FBS), 2 mM nonessential amino acids, 100 U/mL penicillin, and […] streptomycin, and incubation was conducted at 37 °C with 5% CO2 in a humidified atmosphere. The fresh medium was added every 2 days. Cultivation of the cells was further conducted with direct observation by the phase contrast microscope every 2–3 days. Before confluence was achieved, cells were subcultured and seeded in 96-well plates at a density of 1.0 × 10^4 cells per well and cultivated in DMEM supplemented with 10% FBS, 100 U/mL penicillin, and 100 μg/mL streptomycin. Previously described Sulforhodamine B assay was used for the determination of cytotoxicity. The obtained results were defined as GI50 values corresponding to the compound concentration that inhibits 50% of the net cell growth. Ellipticine was used as a positive control.

[3] = test system: C. albicans 475/15 biofilm formation; test: Inhibition of biofilm formation (crystal violet); assay type: cell-based, Candida albicans; conditions: for antibiofilm activity: MIC and subMICs; for inhibition of biofilm formation: compound applied at MIC
Description: Potential of selected compounds to interfere with C. albicans 475/15 biofilm formation was investigated as previously described. Briefly, C. albicans 475/15 was incubated with serial dilution of the compounds (MIC and subMICs) in YPD medium, in 96-well microtiter plates with adhesive bottom (Sarstedt, Nümbrecht, Germany), at 37 °C for 24 h. After incubation, wells were washed twice with sterile PBS and methanol was added into each well. After fixation, methanol was discarded, and the plate was air dried. Formed biofilms were stained with 0.1% crystal violet (Bio-Merieux, Craponne, France) for 30 min. The plate was gently washed under the tap of water and air dried. The stain bound to the remaining biofilms was dissolved with ethanol (96%, Zorka, Šabac, Serbia). Absorbance was read on a Multiskan™ FC Microplate Photometer, Thermo Scientific™. The percentage of inhibition of biofilm formation was calculated by the formula:[(A620control − A620sample)/A620control] × 100

C. albicans = conditions: cited from earlier work
Candida albicans = test: Microdilution assay, MIC (strain not named); assay type: cell-based; conditions: read-out: minimum inhibitory concentration (MIC)
Description: as §5, §6

ERG11 = test: Expression of ERG11 (qPCR); assay type: cell-based, Candida albicans; conditions: treatment with MIC
Description: as §1, §2, §3, §4

CDR1 [4] = conditions: identical assay, previously published; cited from earlier work

C[C@@H]1O[C@@H](Oc2c(-c3ccc(O)c(O)c3)oc3cc(O)cc(O)c3c2=O)[C@H](O)[C@H](O)[C@H]1O [Quercitrin, quercitrin]
impact on CDR1 expression (CDR1 [1]): downregulated | antibiofilm activity (C. albicans biofilm): complete lack of activity | MFC (C. albicans 13/15; 13/15): 75 ± 3 µg/mL (≈ 167 µM) | MIC (C. albicans 13/15; 13/15): 37.5 ± 1 µg/mL (≈ 83.6 µM) | MFC (C. albicans 527/14; 527/14): 75 ± 3 µg/mL (≈ 167 µM) | MIC (C. albicans 527/14; 527/14): 37.5 ± 2 µg/mL (≈ 83.6 µM) | MFC (C. albicans 475/15; 475/15): 75 ± 3 µg/mL (≈ 167 µM) | MIC (C. albicans 475/15; 475/15): 37.5 ± 2 µg/mL (≈ 83.6 µM) | MFC (C. albicans 10/15; 10/15): 75 ± 3 µg/mL (≈ 167 µM) | MIC (C. albicans 10/15; 10/15): 37.5 ± 2 µg/mL (≈ 83.6 µM) | GI50 [2]: 73 ± 3 µg/mL (≈ 163 µM) | antibiofilm activity [3]: lowest potential to reduce biofilm formation | inhibition of biofilm formation [3]: less than 50% | MIC (C. albicans; C. albicans ATCC 10231, ref 17): 100 µg/mL (≈ 223 µM) | MIC (C. albicans; C. albicans CAD1, clinical isolate): > 512 µg/mL | MIC (Candida albicans): 37.5 µg/mL (≈ 83.6 µM)

C[C@@H]1O[C@@H](OC[C@H]2O[C@@H](Oc3c(-c4ccc(O)c(O)c4)oc4cc(O)cc(O)c4c3=O)[C@H](O)[C@@H](O)[C@@H]2O)[C@H](O)[C@H](O)[C@H]1O [Rutin, rutin]
antibiofilm activity (C. albicans biofilm): lack of C. albicans CAD1 antibiofilm activity | MFC (C. albicans 13/15; C. albicans 13/15, mean ± SD of three replicates, read-out: MFC): 75 ± 2 µg/mL (≈ 123 µM) | MIC (C. albicans 13/15; C. albicans 13/15, mean ± SD of three replicates, read-out: MIC): 37.5 ± 1 µg/mL (≈ 61.4 µM) | MFC (C. albicans 527/14; C. albicans 527/14, mean ± SD of three replicates, read-out: MFC): 75 ± 1 µg/mL (≈ 123 µM) | MIC (C. albicans 527/14; C. albicans 527/14, mean ± SD of three replicates, read-out: MIC): 37.5 ± 1 µg/mL (≈ 61.4 µM) | MFC (C. albicans 475/15; C. albicans 475/15, mean ± SD of three replicates, read-out: MFC): 75 ± 1 µg/mL (≈ 123 µM) | MIC (C. albicans 475/15; C. albicans 475/15, mean ± SD of three replicates, read-out: MIC): 37.5 ± 1 µg/mL (≈ 61.4 µM) | MFC (C. albicans 10/15; C. albicans 10/15, mean ± SD of three replicates, read-out: MFC): 75 ± 2 µg/mL (≈ 123 µM) | MIC (C. albicans 10/15; C. albicans 10/15, mean ± SD of three replicates, read-out: MIC): 37.5 ± 1 µg/mL (≈ 61.4 µM) | impact on ERG11 expression (words) (ERG11): lower expression levels; also recorded: negative impact; also recorded: lowering ERG11 expression | GI50 [2]: > 400 µg/mL | antibiofilm activity [3]: lowest activity against biofilm formation | inhibition of biofilm formation [3]: less than 50% | MIC (C. albicans; C. albicans ATCC 10231, ref 21): 40 µg/mL (≈ 65.5 µM) | MIC (C. albicans; C. albicans ATCC 18804): > 1000 µg/mL | concentration necessary for growth inhibition (C. albicans; C. albicans CA-1): 1000 µg/mL | MIC (Candida albicans; C. albicans, this study, strain not given): 37.5 µg/mL (≈ 61.4 µM)

O=c1c(O[C@@H]2O[C@H](CO)[C@@H](O)[C@H](O)[C@H]2O)c(-c2ccc(O)cc2)oc2cc(O)cc(O)c12 [astragalin]
impact on CDR1 expression (CDR1 [4]): inhibitory impact
